Test results taken from US20140005268A1, “PHARMACEUTICAL COMPOSITION FOR TREATING OXIDATIVE STRESS-INDUCED PATHOLOGY AND USE THEREOF” (priority 2011, published 2014).

Tested on: hemorrhoids (Goligher type I, II, III and IV)
Experiment: Clinical test of rectally administered suppositories in volunteers with hemorrhoids (Goligher's classification)
Assay type: in vivo
Settings: adult human beings of both genders, 20 to 80 years old, daily dosage as in Table 1, average ± standard error, n=20
Experimental: For such, various volunteers were randomly selected.
In short, volunteers, aging from 20 to 80 years old, were tested and observed for 28 days by rectally administering suppositories of 2 g each, containing the active ingredients in the indicated proportion: methionine (170 mg/day), cysteine (20 mg/day) and phenylalanine (10 mg/day) each.
The indicated values in the Table are average values in 20 experiments±standard errors (n=20).

Row | Structure (SMILES) | Bleeding inhibition after 72 h (%) | Relapse after 5 years (%)
1 | N[C@@H](CS)C(=O)O [L-cysteine] | 10 ± 1% | 80 ± 8%
2 | CSCC[C@H](N)C(=O)O [L-methionine] | 70 ± 7% | 15 ± 2%
3 | N[C@@H](Cc1ccccc1)C(=O)O [L-phenylalanine] | 2 ± 1% | 90 ± 9%
